≈ marks a conversion by molar mass, not a printed value. Where two headings read alike, the source gives them in different places.
Assays:
Assay type in all cases: cell-based
Aspergillus flavus = assay: MIC, YAG medium, Aspergillus flavus; details: YAG medium; for MIC: Aspergillus flavus
Experimental: (§1) Measurement of Minimum Inhibitory Concentrations (MICs)
(§2) Between 1 and 5 mgs of compound were accurately weighed out into a sterile Eppendorf tube. The compound was dissolved in DMSO to give a solution containing 5 mg/ml. Tubes were stored at −20° C. until required.
(§3) On the day of testing thawed solutions were vortex mixed to ensure homogeneity. 30 μl of solution was removed and added to 570 μl of sterile water in a separate sterile Eppendorf. The thoroughly mixed solution was used to prepare a series of doubling dilutions in water, in a deep well plate. Eleven replicate plates were prepared using a Minitrak by aspirating 20 μl from each well into eleven clear polystyrene 96 well plates.
(§4) Spores of Aspergillus spp (Aspergillus fumigatus, Aspergillus terreus, Aspergillus niger and Aspergillus flavus) were harvested from cultures grown on Sabarauds agar for 5 days, and resuspended in PBS/Tween 80 to approx 1×10^7 cfu/ml Other filamentous fungi (Fusarium solani, Scedosporium spp., Trichophyton spp., Absidia corymbifera), were grown on Sabarauds agar for 2-10 days and spores/hyphae resuspended in PBS/Tween to give approx 1×10^7 cfU/ml. Candida species (Candida albicans, Candida glabrata, Candida krusei, Candida parapsilosis and Candida tropicalis) were grown on Sabarauds agar, cells were harvested from the agar using a sterile loop and resuspended in PBS/Tween 80 to approx 1×10^6 cfu/ml. Each organism suspension was diluted in RPMI medium, containing 2% glucose and 0.135M MOPS buffer (pH7.0) to 2×10^4 cfu/ml for Aspergillus spp and other filamentous fungi and 2×10^3 cfu/ml for yeast. 80 μl of an organism suspension was added to each well of the plate containing drug dilutions.
(§5) This produced MIC plates with a drug range 50-0.05 mg/L and organism inocula of 1-2×10^4 cfu/ml for Aspergillus spp and other filamentous fungi and 1-2×10^3 cfu/ml for yeasts. All plates were incubated for 24-48 hrs at 35° C. Growth was assessed by monitoring the optical density at 485 nm for each well. The MIC of a compound is the lowest drug concentration that inhibits growth of an organism by >80% compared with a drug free control. MICs are recorded as mg/L. Other growth media can be used for susceptibility testing, and the activity of the described compounds can also be assessed in a medium comprising, 1% glucose, 1% ammonium chloride and 0.5% yeast extract (YAG medium). To perform MIC tests in this medium, dilutions of compounds are prepared in microtitre plates as described above. Fungal strains to be tested are grown and harvested in an identical manner to that described above, each organism suspension is then diluted in YAG medium to 2×10^4 cfu/ml for Aspergillus spp and other filamentous fungi and 2×10^3 cfu/ml for yeast. 80 μl of an organism suspension was added to each well of the plate containing drug dilutions. This produced MIC plates with a drug range 50-0.05 mg/L and organism inocula of 1-2×10^4 cfu/ml for Aspergillus spp and other filamentous fungi and 1-2×10^3 cfu/ml for yeasts. All plates were incubated for 24 hrs at 35° C. Growth was assessed by monitoring the optical density at 485 nm for each well. The MIC of a compound is the lowest drug concentration that inhibits growth of an organism by >70% compared with a drug free control. MICs are recorded as mg/L. In cases where the MIC of an organism is […]0.05 mg/L the MIC is repeated using a concentration range of 0.5-0.0005 mg/L. MIC tests in YAG medium have more clear-cut endpoints and have slightly lower MICS than those performed in RPMI medium.
(§6) The following organisms were tested: Aspergillus fumigatus AF293 and Aspergillus fumigatus AF210, Aspergillus niger, Aspergillus terreus, Aspergillus favus, Candida albicans, Candida krusei, Candida tropicalis, Candida glabrata, Candida parapsilosis, Trichophyton rubrum, Trichophyton mentagrophytes, Scedosporium prolificans, Scedosporium apiospermum, Absidia corymbifera, Fusarium solani.

[1] = system: Aspergillus fumigatus AF293; assay: MIC, YAG medium, Aspergillus fumigatus AF293; details: YAG medium; for MIC: Aspergillus fumigatus, AF293, read-out: MIC A Fum. 293
Experimental: as §1, §2, §3, §4, §5, §6

Aspergillus niger = assay: MIC, YAG medium, Aspergillus niger; details: YAG medium; for MIC: Aspergillus niger
Experimental: as §1, §2, §3, §4, §5, §6

Aspergillus terreus = assay: MIC, YAG medium, Aspergillus terreus; details: YAG medium; for MIC: Aspergillus terreus
Experimental: as §1, §2, §3, §4, §5, §6

[2] = system: Aspergillus fumigatus AF210; assay: MIC, YAG medium, Aspergillus fumigatus AF210; details: YAG medium; for MIC: Aspergillus fumigatus, AF210, read-out: MIC A Fum. 210
Experimental: as §1, §2, §3, §4, §5, §6

Row | SMILES | MIC (Aspergillus flavus; read-out: MIC A Flavus 01) [µg/mL] | MIC [1] [µg/mL] | MIC (Aspergillus niger; read-out: MIC A Niger 1) [µg/mL] | MIC (Aspergillus terreus; read-out: MIC A Terreus 4) [µg/mL] | MIC [2] [µg/mL] | MIC A Flavus 01 (Aspergillus flavus) [µg/mL] | MIC A Fum. 293 [1] [µg/mL] | MIC A Niger 1 (Aspergillus niger) [µg/mL] | MIC A Terreus 4 (Aspergillus terreus) [µg/mL] | MIC A Fum. 210 [2] [µg/mL] | MIC (Aspergillus flavus; read-out: MIC A Flavus) [µg/mL] | MIC (Aspergillus niger; read-out: MIC A Niger) [µg/mL] | MIC (Aspergillus terreus; read-out: MIC A Terreus) [µg/mL]
1 | COc1ccc(NC(=O)C(=O)c2c(-c3ccc(F)cc3)cc3ccccn23)cn1 [Example 157, 2-[2-(4-Fluoro-phenyl)-indolizin-3-yl]-N-(6-methoxy-pyridin-3-yl)-2-oxo-acetamide] | 0.1 (≈ 0.257 µM) | 6.25 (≈ 16.1 µM) | 0.1 (≈ 0.257 µM) | 0.2 (≈ 0.514 µM) | 1.6 (≈ 4.11 µM) |  |  |  |  |  |  |  | 
2 | CC(C)NC(=O)C(=O)c1c(-c2ccccc2)cc2ccccn12 [Example 180, N-Isopropyl-2-oxo-2-(2-phenyl-indolizin-3-yl)-acetamide] | > 50 | 6.25 (≈ 20.4 µM) | 3.1 (≈ 10.1 µM) | 6.25 (≈ 20.4 µM) | 6.25 (≈ 20.4 µM) |  |  |  |  |  |  |  | 
3 | COc1ccc(NC(=O)C(=O)c2c(-c3ccccc3)cc3c(C)cccn23)cn1 [Example 194, N-(6-Methoxoy-pyridin-3-yl)-2-(8-methyl-2-phenyl-indolizin-3-yl)-2-oxo-acetamide] |  |  |  |  |  | >50 | >50 | >50 | 25 (≈ 64.9 µM) | >50 |  |  | 
4 | CS(=O)(=O)Nc1ccc(NC(=O)C(=O)c2c(-c3ccccc3)cc3ccccn23)cc1 [Example 219, N-(4-Methanesulfonylamino-phenyl)-2-oxo-2-(2-phenyl-indolizin-3-yl)-acetamide] | > 50 | 12.5 (≈ 28.8 µM) | 3.1 (≈ 7.15 µM) | 6.25 (≈ 14.4 µM) | 50 (≈ 115 µM) |  |  |  |  |  |  |  | 
5 | O=C(Nc1ccc(Cl)cc1)C(=O)c1c(-c2ccc(F)cc2)cc2ccccn12 [Example 210, N-(4-Chloro-phenyl)-2-[2-(4-fluoro-phenyl)-indolizin-3-yl]-2-oxo-acetamide] | 0.05 (≈ 0.127 µM) | > 50 | 0.05 (≈ 0.127 µM) | 0.05 (≈ 0.127 µM) | > 50 |  |  |  |  |  |  |  | 
6 | COc1ccc(NC(=O)C(=O)c2c(-c3cccc(C#N)c3)cc3ccccn23)cc1 [Example 236, 2-[2-(3-Cyano-phenyl)-indolizin-3-yl]-N-(4-methoxy-phenyl)-2-oxo-acetamide] | 0.1 (≈ 0.253 µM) | > 50 | > 50 | 0.05 (≈ 0.126 µM) | > 50 |  |  |  |  |  |  |  | 
7 | O=C(Nc1ccc(Cl)cc1Cl)C(=O)c1c(-c2cccnc2)cc2ccccn12 [Example 224, N-(2,4-Dichloro-phenyl)-2-oxo-2-(2-pyridin-3-yl-indolizin-3-yl)-acetamide] | 0.05 (≈ 0.122 µM) | 6.25 (≈ 15.2 µM) | 0.2 (≈ 0.487 µM) | 0.1 (≈ 0.244 µM) | 6.25 (≈ 15.2 µM) |  |  |  |  |  |  |  | 
8 | O=C(Nc1cc(Cl)cc(Cl)c1)C(=O)c1c(-c2cccnc2)cc2ccccn12 [Example 227, N-(3,5-Dichloro-phenyl)-2-oxo-2-(2-pyridin-3-yl-indolizin-3-yl)-acetamide] | 0.05 (≈ 0.122 µM) | 1.6 (≈ 3.9 µM) | 1.6 (≈ 3.9 µM) | 0.05 (≈ 0.122 µM) | 0.8 (≈ 1.95 µM) |  |  |  |  |  |  |  | 
9 | CN(C)C(=O)c1ccc(NC(=O)C(=O)c2c(-c3ccccc3)cc3ccccn23)cc1 [Example 160, N,N-Dimethyl-4-[2-oxo-2-(2-phenyl-indolizin-3-yl)-acetylamino]-benzamide] | 3.1 (≈ 7.53 µM) | 50 (≈ 122 µM) | 0.4 (≈ 0.972 µM) | 50 (≈ 122 µM) | 50 (≈ 122 µM) |  |  |  |  |  |  |  | 
10 | CCN(C(=O)C(=O)c1c(-c2ccccc2)cc2ccccn12)c1ccccc1 [Example 302, N-Ethyl-2-oxo-N-phenyl-2-(2-phenyl-indolizin-3-yl)-acetamide] |  | 50 (≈ 136 µM) |  |  | 25 (≈ 67.9 µM) |  |  |  |  |  | > 50 | > 50 | 25 (≈ 67.9 µM)
11 | COc1ccc(NC(=O)C(=O)c2c(-c3cccnc3)cc3ccccn23)cc1 [Example 147, N-(4-Methoxy-phenyl)-2-oxo-2-(2-pyridin-3-yl-indolizin-3-yl)-acetamide] | 0.1 (≈ 0.269 µM) | 12.5 (≈ 33.7 µM) | 0.1 (≈ 0.269 µM) | 3.1 (≈ 8.35 µM) | 6.25 (≈ 16.8 µM) |  |  |  |  |  |  |  | 

Reference: US8486962B2, “Antifungal agents” (F2G Ltd., priority 2005, dated 2013)
